Experimental data taken from PubChem BioAssay (NCI).
“And” between values parts separate entries of the source, which are not always exact repeats. Equal values may be shown once.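 Growth conditions: 96-well plates. Treatment: test compound, 48 hours, 5 concentrations. Analysis: linear interpolation between bracketing concentrations; unreached endpoints set to highest concentration. GI50 = concentration required for 50% inhibition of growth. TGI denotes the concentration required for complete inhibition of growth.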

Key:
Assay in all cases: DTP human tumour cell line panel, 48 h
DMS 273 small cell lung = system: DMS 273 small cell lung
KM12 colon = system: KM12 colon
OVCAR-3 ovarian = system: OVCAR-3 ovarian
OVCAR-5 ovarian = system: OVCAR-5 ovarian
SF-295 CNS = system: SF-295 CNS
DU-145 prostate = system: DU-145 prostate
HS 578T breast = system: HS 578T breast
MDA-MB-435 = system: MDA-MB-435
NCI/ADR-RES ovarian = system: NCI/ADR-RES ovarian
DMS 114 small cell lung = system: DMS 114 small cell lung

| SMILES | TGI (DMS 273 small cell lung) [µM] | TGI (KM12 colon) [µM] | TGI (OVCAR-3 ovarian) [µM] | TGI (OVCAR-5 ovarian) [µM] | TGI (SF-295 CNS) [µM] | GI50 (DU-145 prostate) | TGI (DU-145 prostate) [µM] | GI50 (HS 578T breast) | TGI (HS 578T breast) [µM] | GI50 (KM12 colon) | GI50 (MDA-MB-435) | TGI (MDA-MB-435) [µM] | GI50 (NCI/ADR-RES ovarian) | TGI (NCI/ADR-RES ovarian) [µM] | GI50 (OVCAR-3 ovarian) | GI50 (OVCAR-5 ovarian) | GI50 (SF-295 CNS) | TGI (DMS 114 small cell lung) [µM] | GI50 (DMS 273 small cell lung) [µM] |
| --- | --- | --- | --- | --- | --- | --- | --- | --- | --- | --- | --- | --- | --- | --- | --- | --- | --- | --- | --- |
| COC(=O)CCC(NC(=S)N/N=C(\C)c1cnc2ccccc2n1)C(=O)OC (stereo not given) | > 100 | 80.4 | > 100 | 63.4 | > 100 | – | – | – | – | – | – | – | – | – | – | – | – | – | – |
| COC[C@@H](N=C1NC(=O)/C(=C/c2ccc3ncccc3c2)S1)c1ccccc1 | – | > 25 | > 25 | > 25 | > 25 | 12 µM | > 25 | 7.43 µM | > 23.2 | 10.8 µM | 9.12 µM | > 25 | 11.6 µM | > 25 | 9.38 µM | > 25 µM | 8.71 µM | – | – |
| CC1=CC(=O)C2=C(C)CCC3C(C)C(=O)OC3C12 (stereo not given) | – | > 100 | > 100 | > 100 | > 100 | – | > 100 | – | > 100 | – | – | > 100 | – | > 100 | – | – | – | – | – |
| O=S(=O)(NCCCNc1nccc(-c2c(-c3ccc(O)cc3)nc3sccn23)n1)c1ccc(F)cc1 | – | 5.46 | 12.1 | > 100 | 4.56 | 2.52 µM | 9.56 | 2.8 µM | 6.99 | 2.02 µM | 0.245 µM | 4.76 | 4.59 µM | > 100 | 2.66 µM | 5.58 µM | 1.99 µM | – | – |
| COC(=O)C(C(=O)C(=O)Nc1c(C)cccc1C)c1cnc2ccccc2n1 (stereo not given) | > 100 | > 100 | – | > 100 | > 100 | – | – | – | – | – | – | – | – | – | – | – | – | > 100 | – |
| O=C(N/C(=C\c1ccc(Cl)cc1)c1nc2ccccc2[nH]1)c1ccccc1 | 42.9 | 33.6 | 49 | 85 | – | – | – | – | – | – | – | – | – | – | – | – | – | – | – |
| Cc1cccc(N(C)C(=O)[C@@H]2[C@H](O)CCN2c2nc(C)cc(C(F)(F)F)c2C#N)c1 | – | > 100 | 81.3 | 98.2 | 54.2 | 25.1 µM | > 100 | 25.7 µM | > 100 | 28.2 µM | 32 µM | > 100 | 22.6 µM | 89.1 | 15.2 µM | 25.4 µM | 20.3 µM | – | – |
| Nc1nccc(-c2c(-c3ccc(F)cc3)ncn2C2CCNCC2)n1 | – | > 25 | > 25 | > 25 | > 25 | 7.77 µM and 3.96 µM | > 25 | > 18.3 µM and 5.54 µM | > 25 | 4.26 µM and 4.01 µM | 2.87 µM and 4.17 µM | > 25 | > 25 µM and 5.1 µM | > 25 | 6.78 µM and 4.93 µM | 9.62 µM and 5.81 µM | > 12.4 µM and 5.75 µM | – | – |
| Cc1nc2ccc(Nc3nc(Cl)nc(N4CCOCC4)n3)cc2n1Cc1ccccc1 | – | > 100 | 36 | > 100 | 82 | 28.1 µM | > 100 | 4.67 µM | > 100 | > 100 µM | 8.23 µM | > 100 | 4.43 µM | > 100 | 4.19 µM | > 100 µM | 11.9 µM | – | – |
| CCC(C)CCOC(=O)c1ccc(N=Cc2ccc(C=Nc3ccc(C(=O)OCCC(C)CC)cc3)cc2)cc1 (stereo not given) | > 100 | – | > 100 | > 100 | > 100 | – | – | – | – | – | – | – | – | – | – | – | – | > 100 | – |
| CC(C)C1=CC(=O)C(C)(C2C(O)CC3(C)C4CC=C5C(CCC(OC6OC(CO)C(O)C(O)C6OC6OC(C)C(O)C(O)C6O)C5(C)C)C4(C)C(=O)CC23C)O1 (stereo not given) | – | > 100 | > 100 | > 100 | > 100 | – | > 100 | – | > 100 | – | – | > 100 | – | > 100 | – | – | – | – | – |
| CCN(CCCN(C)C)Cc1cc(I)cc(C)c1O | – | 44.7 | > 100 | 96.1 | 31.9 | 36.8 µM | > 100 | 15.3 µM | 33.1 | 20 µM | 15.7 µM | 31.6 | 27 µM | > 100 | 26.7 µM | 26.8 µM | 15.9 µM | – | – |
| NS(=O)(=O)c1ccc(Nc2cc(-c3cccc(O)c3)[nH]n2)cc1 | – | > 25 | > 25 | > 25 | > 25 | > 25 µM | > 25 | > 25 µM | > 25 | > 23.7 µM | > 25 µM | > 25 | > 25 µM | > 25 | 16.2 µM | > 25 µM | > 25 µM | – | – |
| N.N.N.N.N.[Co+3].[I-].[N-]=[N+]=[N-] | > 100 | > 100 | > 100 | > 100 | > 100 | – | – | – | – | > 100 µM | – | – | – | – | > 100 µM | > 100 µM | > 100 µM | – | > 100 |
| Fc1cccc(COc2ccc(Nc3ncnc4sc(-c5cccs5)cc34)cc2Cl)c1 | – | > 25 | 6.24 | > 25 | > 25 | 11.1 µM | > 17.7 | > 8.44 µM | > 14.9 | 4.07 µM | 3.61 µM | > 19.1 | 4.74 µM | > 17.3 | 0.77 µM | 6.89 µM | 9.81 µM | – | – |
| COc1ccc(/C=C(/C#N)C(N)=O)c(OC)c1 | – | > 100 | > 100 | > 100 | > 100 | – | > 100 | – | > 100 | – | – | 48.5 | – | > 100 | – | – | – | – | – |
| CC(C)(Br)C(=O)N1CCN(C(c2ccccc2)c2ccccc2)CC1 | – | 31.8 | 36.8 | > 100 | > 100 | – | > 100 | – | 55.5 | – | – | > 100 | – | > 100 | – | – | – | – | – |
| Cc1cc2nc3c4cc(O)ccc4n(CCN(C)C)c3nc2cc1C | – | 7.8 | 8.19 | 4.46 | 2.49 | 1.03 µM | 4.31 | 1.49 µM | 5.41 | 1.38 µM | 1.07 µM | 2.36 | 0.499 µM | 4.2 | 1.77 µM | 0.953 µM | 0.573 µM | – | – |
